The text below walks through data of article PMC8381248 (Frontiers in Pharmacology, 2021).

The nature of data set [1]: Plasma protein binding rate, rapid equilibrium dialysis, rat plasma. The data set is classed as in vitro ADME. Particulars: 37°C. On the procedure:
(§1) In brief, the unbound drugs (or references) were separated from plasma (human and rat) in a 96-well plate with a semipermeable membrane through which only unbound drug can permeate. The equilibrium unit was sealed and incubated at 37°C in a mixer at 100 rpm for 4 h.
(§2) Then, 50 ng/ml of midazolam and 50 ng/ml of tolbutamide (in acetonitrile) were used as IS.
(§3) After reaching equilibrium, the concentrations of the samples in both the plasma and the buffer compartment were determined. According to the specification, the resultant supernatant was collected, properly diluted by distilled water, vortexed for 10 min, and finally analyzed using LC-MS/MS. All the samples (PDG, PINL, diclofenac, and propranolol) for detection were prepared in duplicate.
(§4) The concentrations of the samples were determined by internal standard methods, in which the data were acquired and analyzed by Analyst 1.6.1 software station (AB Sciex Corporation, Boston, MA, United States). The equation of plasma protein binding rate is calculated as follows: Free drug rate (%)=CB/CA×100% (3) Plasma protein binding rate (%)=100%−Free drug rate(%) (4) C B is the drug concentration in dialysis chamber, and C A is the drug concentration in the sample chamber.

Data set [2] in a line: Kinetic solubility test in PBS. The data set is classed as physicochemical. As to conditions: phosphate-buffer saline (PBS). On the procedure:
Internal standard (IS) solutions (propranolol and tolbutamide) were dissolved by acetonitrile (50 ng/ml propranolol + 200 ng/ml tolbutamide).
The sample solutions were analyzed using LC-MS/MS. All the samples (test samples and references) for detection were prepared in duplicate. The conditions for LC-MS/MS are shown in Support Materials (Supplementary Table S1).

Data set [3] is described as follows: in vitro. Particulars: microsomes. On the procedure: Then, this incubation plate containing mixed solution and NADPH regeneration system was agitated on a plate shaker at 100 rpm and pre-incubated at 37°C for 5 min. Subsequently, 300 μL of precooled quenching solution was added to each well of another deep-well plate (quench plate), which was cooled on ice. The solution in the incubation plate was transferred into the well of the quench plate as the samples in 0 min before it was mixed with another 20 µL of NADPH regeneration solution in the wells.
The incubation plate was incubated at 37°C for 0, 10, 30, and 90 min. At each time point, 100 μL of the supernatant in the incubation plate was removed from each well, quenched immediately, transferred to the wells of the ice-cold quench plate, and vortexed for 5 min. Additionally, an equal volume of pre-warmed fresh regeneration solution was added to the incubation plate for compensation after every withdrawal. […] Each test was operated in duplicate. The determination conditions of LC-MS/MS are shown in Support Materials (Supplementary Table S4).
The in vitro T1/2 was determined by converting the analyte/IS peak area ratios to percentage of drug remaining using the initial peak (t = 0 min) area ratio values as 100%.

Data set [4] can be described thus: Plasma protein binding rate, rapid equilibrium dialysis, human plasma. The data set is classed as in vitro ADME. As to conditions: 37°C. The procedure:
as §1, §2, §3, §4

Data set [5] is described as follows: in vitro. As to conditions: PAMPA. On the procedure: Verapamil and digoxin solutions, used as reference, prepared in the same manner as the test drugs. Tolbutamide dissolved with acetonitrile (200 ng/ml) was used as IS.
The resultant supernatants were determined by LC-MS/MS. The specific assay conditions are shown in Support Materials (Supplementary Table S2).
Background: The PAMPA barrier holds no transporters, so it reflects passive diffusion.

Data set [6] has as its system PE-constricted aortic rings. Description: Vasorelaxant effects on isolated PE-constricted aortic rings. The arrangement: species or system SD rats. As to conditions: 10^–6 M PE, n = 6. On the procedure:
SD rats were anesthetized by exposure to ether, and the thoracic aorta was removed and immersed in Krebs-Henseleit (K-H) buffer ([Lee et al., 2013]) at 4°C. The connective tissues and fats around the aorta were carefully removed under the microscopes, and the blood was flushed. The aorta ring was cut into four sections approximately 3 mm long and suspended in organ chambers containing K-H buffer. The endothelium was also removed by gently rubbing the lumen of the vessel with a cotton swab. The aortic rings were placed in a 5 ml organ chambers of DMT multiwire myograph system (620M, Danish Myo Technology, Denmark) and were filled with K-H buffer aerated with 95% O2 and 5% CO2 at 37°C. The aortic rings were mounted on hooks connected to a tension transducer and a displacement device.
The initial vessel tension was slowly adjusted to 15 mN and maintained balanced for 60 min. The buffer was renewed once every 15 min. After equilibration, the vessel viability was pre-constricted by exposing the aortic rings to 60 mM KCl for 10 min ([Ding et al., 2019]). Then, the K-H buffer was continuously renewed to elute and restore the initial tension of the vascular ring to assay the vascular activity. The pre-treated operation was repeated two times, where the constriction amplitude after each KCl stimulation to reach the previous constriction amplitude was taken as the criterion, before the experiment continued. Subsequently, 10^–6 M PE was added to contract the blood vessel. After the constriction was stable, different concentrations of Ach (10^−9–10^–5 M) were used to dilate the vessels. Then, the vasorelaxation degree could be calculated with different Ach concentrations, as the following equation: Vasorelaxation degree (%)=Maxium constriction tension induced by PE−Minium diastolic tension induced by Ach/Maxium constriction tension induced by PE−Resting tension×100% (10) When the vasorelaxation degree corresponding to Ach (10^–5 M) is greater than 80%, the vascular endothelium is considered intact and functional. The endothelium is considered to be removed with a vasorelaxation degree of less than 20% ([Lee et al., 2013]). Endothelium-intact and endothelium-denuded aortic rings from the same aorta were tested.
After equilibration, the endothelium-intact and the endothelium-denuded aortic rings were pre-constricted with 10^–6 M PE in the K-H buffer system.
After equilibration, the endothelium-intact aortic rings were pre-constricted with 10^–6 M PE in the K-H buffer system. […] Then, the corresponding vasoconstrictive responses were examined and recorded.
In the vasorelaxant effects investigations, all the data are presented as mean ± SEM. Statistical analysis was performed using two-way ANOVA followed by Fisher’s least significant difference (LSD) test. Values at p < 0.05 were considered statistically significant.

The structures appear in SMILES notation.

For orientation: fraction unbound means free concentration divided by total concentration. Low values mean extensive binding, high ones weak binding. Usually solubility (kinetic) stands for solubility judged after dilution from a stock solution rather than from solid. What is called half-life is the time needed for the level to fall by half in the phase considered. Lower therefore signals fast loss. One may read the microsomal CLint as the capacity of the preparation to metabolise the compound, expressed as a volume cleared per time. What is called Papp is a coefficient for how fast a substance crosses the barrier. The low end stands for poor permeation, the high end for ready permeation. Take `COc1cc(C2OCC3C(c4ccc(OC5OC(CO)C(O)C(O)C5O)c(OC)c4)OCC23)ccc1OC1OC(CO)C(O)C(O)C1O` (single isomer, unassigned; (+)) [PDG, (+)-1-pinoresinol 4,4′-di-O-β-D-glucopyranoside]: the fraction unbound at 4 h, 10 µM in data set [1] was 0.623; in data set [4], 0.548. The kinetic solubility in data set [2] (aqueous buffer, kinetic from dmso stock, PBS (100 mM, pH 7.4)) was 99.5 ± 14 µg/mL; in data set [2] (aqueous buffer, kinetic from dmso stock, PBS (pH 7.4), μg/ml value expressed in µM), approximately 146 µM; in data set [2] (PBS (pH 7.4), μg/ml value expressed in µM) it was more than 100 µM. Further, the figures for the half-life in “in vitro [3]” (human) and in the data set “in vitro [3]” (rat) were 16.7 h and 17.3 h, respectively. Besides, the values for the half-life at 5 µM in “in vitro [3]” (human) and in the data set “in vitro [3]” (rat) were 16.7 h and 17.3 h, respectively. The figures for the microsomal CLint in the data set “in vitro [3]” (human) and in the data set “in vitro [3]” (rat) were 1.4 µL/min/mg and 1.3 µL/min/mg, respectively. The Papp at 18000 s in the data set “in vitro [5]” was found to be 0.002 ×10⁻⁶ cm/s. Moreover, in the data set “in vitro [5]” (18000 s), the Peff is on record as 0.02 cm/s, ×10^–7. Also, the “vasorelaxant effect on PE-constricted aortic rings” value in data set [6] (increasing concentration 25–200 μM) is “concentration-dependent vasorelaxation”. Further, the “vasorelaxation degree, endothelium-denuded versus endothelium-intact group” value in data set [6] (PINL difference at 50–100 μM) was “not statistically significant”.
